Columns and labels:
[1] = test system: mice; test: direct-acting stimulant / psychostimulant effect in animals such as mice; format: in vivo; settings: similarly tested; result in words
Description: As has been indicated hereinabove the novel end products of this invention, i.e., the compounds of the formula I and their pharmaceutically acceptable acid addition salts and the compounds of formula II-d and their pharmaceutically acceptable acid addition salts, are useful as psychostimulants. When administered, for example, orally, to animals such as mice they produce a direct-acting stimulant effect of long duration in single doses in amounts ranging from 0.03 mg/kg to 50 mg/kg. […] Exp. Path. and Pharm., Vol. 140, page 237). The compounds of this invention have psychostimulant effects qualitatively similar in many respects to those of imipramine and amphetamine which are well known for their therapeutic uses and properties.

[2] = acute toxicity (LD50) in mice; settings: mouse, in vivo
[3] = test system: dogs; test: blood pressure in dogs; format: in vivo; settings: 4 mg/kg i.v.
Description: (§1) In addition to their use as psychostimulants, the compounds of formulas I and II-d are also useful as analgesic agents. […] For example, 2-(2-benzoylphenyl)-2-imidazoline in dogs at 4 mg/kg i.v. produced an increase in blood pressure of 10 mm. Hg after 2 minutes followed by gradual increase to 25 mm. Hg.

[4] = test system: animals; test: analgesic properties in standard pharmacological tests in animals; format: in vivo; settings: result in words
Description: as §1

[5] = LD50 of Example 21; settings: in vivo, iv; species not given

In the case of `COC1(c2ccccc2)c2ccccc2C2=NCCN21` (centres unmarked) [2,3-dihydro-5-methoxy-5-phenyl-5H-imidazo[2,1-a]isoindole], the “test result compared with 2-(2-benzoylphenyl)-2-imidazoline” value [1] is reported as “qualitatively similar to 2-(2-benzoylphenyl)-2-imidazoline”.
For `O=C(c1ccccc1)c1ccccc1C1=NCCN1` [Example 10, 2-(2-benzoylphenyl)-2-imidazoline], the LD50 ([2]; ip) was 77 mg/kg, the LD50 ([2]; iv) was 37 mg/kg and the LD50 ([2]; po) was 200 mg/kg. The LD50 ([2]; sc) was 130 mg/kg, the “increase in blood pressure” value ([3]; after 2 minutes) was 10 mm. Hg and the “gradual increase in blood pressure” value ([3]; following the 2-minute value) was 25 mm. Hg. The “analgesic properties compared with phenylbutazone” value [4] was “can be likened to the analgesic properties of phenylbutazone”.
For `O=C(c1ccc(Cl)cc1)c1ccccc1C1=NCCN1` [Example 15, 2-[2'-(4-chlorobenzoyl)phenyl]-2-imidazoline], the “test result compared with 2-(2-benzoylphenyl)-2-imidazoline” value [1] was “qualitatively similar to 2-(2-benzoylphenyl)-2-imidazoline”.
In the case of `COc1ccc(C(=O)c2ccccc2C2=NCCN2)cc1` [Example 16, 2-[2'-(4-anisoyl)phenyl]-2-imidazoline], the “test result compared with 2-(2-benzoylphenyl)-2-imidazoline” value [1] is reported as “qualitatively similar to 2-(2-benzoylphenyl)-2-imidazoline”.
With `OC1(c2ccccc2)c2ccccc2C2=NCCCCN21` (centres unmarked) [Example 21, 2,3,4,5-tetrahydro-7-hydroxy-7-phenyl-7H-diazepino[2,1-a]isoindole] the LD50 [5] was 40 mg/kg.

— US3931217A, “2,3-Dihydro-5-alkoxy-5-phenyl-5H-imidazo[2,1-a]isoindoles” (Hoffmann-La Roche Inc., priority 1974, dated 1976)
